According to patent US12077503B2, “Substituted cyclic amides and their use as herbicides” (FMC CORPORATION, priority 2015, dated 2024):

Columns and labels:
Format in all cases: in vivo
[1] = system: giant foxtail (Setaria faberi); assay: Test G Pre-Emergence Protocol; conditions: Setaria faberi, pre-emergence, 312 h, evaluated after 13 days; for pest or weed control at 15.625 g/ha: 15.625 g ai/ha; for pest or weed control at 15.625 g/ha / pest or weed control at 250 g/ha: read-out: Foxtail, Giant damage rating (100=total damage to plant; 0=no damage to plant); for pest or weed control at 62.5 g/ha: 62.5 g ai/ha, 100=total damage to plant, 0=no damage to plant, read-out: plant damage rating, Foxtail, Giant; for pest or weed control at 250 g/ha: 250 g ai/ha
In short: (§1)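 Pre-emergence spray, 15.625/62.5/250 g/ha, vehicle acetone:water 50:50 + 0.5% Tween 20, applied 1 d after sowing. Glasshouse 24/16° C, 14 h light, 65% RH, watered twice daily. Visual damage rating at 13 d, 0–100 scale.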

[2] = system: redroot pigweed (Amaranthus retroflexus); assay: Test G Pre-Emergence Protocol; conditions: Amaranthus retroflexus, pre-emergence, 312 h, evaluated after 13 days; for pest or weed control at 15.625 g/ha: 15.625 g ai/ha; for pest or weed control at 15.625 g/ha / pest or weed control at 250 g/ha: read-out: Pigweed, Redroot damage rating (100=total damage to plant; 0=no damage to plant); for pest or weed control at 62.5 g/ha: 62.5 g ai/ha, 100=total damage to plant, 0=no damage to plant, read-out: plant damage rating, Pigweed, Redroot; for pest or weed control at 250 g/ha: 250 g ai/ha
In short: as §1

corn (Zea mays) [3] = assay: Test G Pre-Emergence Protocol; conditions: Zea mays, pre-emergence, 312 h, evaluated after 13 days; for plant injury at 15.625 g/ha: 15.625 g ai/ha; for plant injury at 15.625 g/ha / plant injury at 250 g/ha: read-out: Corn damage rating (100=total damage to plant; 0=no damage to plant); for plant injury at 62.5 g/ha: 62.5 g ai/ha, 100=total damage to plant, 0=no damage to plant, read-out: plant damage rating, Corn; for plant injury at 250 g/ha: 250 g ai/ha
In short: as §1

[4] = system: ivy-leaved morning glory (Ipomoea hederacea); assay: Test G Pre-Emergence Protocol; conditions: Ipomoea, pre-emergence, 312 h, evaluated after 13 days; for pest or weed control at 15.625 g/ha: 15.625 g ai/ha, read-out: Morning-glory, Ivy-leaved damage rating (100=total damage to plant; 0=no damage to plant); for pest or weed control at 62.5 g/ha: 62.5 g ai/ha, 100=total damage to plant, 0=no damage to plant, read-out: plant damage rating, Morningglory, Ivy-leaved; for pest or weed control at 250 g/ha: 250 g ai/ha, read-out: Morningglory, Ivy-leaved damage rating (100=total damage to plant; 0=no damage to plant)
In short: as §1

[5] = system: velvetleaf (Abutilon theophrasti); assay: Test G Pre-Emergence Protocol; conditions: Abutilon theophrasti, pre-emergence, 312 h, evaluated after 13 days; for pest or weed control at 15.625 g/ha: 15.625 g ai/ha; for pest or weed control at 15.625 g/ha / pest or weed control at 250 g/ha: read-out: Velvetleaf damage rating (100=total damage to plant; 0=no damage to plant); for pest or weed control at 62.5 g/ha: 62.5 g ai/ha, 100=total damage to plant, 0=no damage to plant, read-out: plant damage rating, Velvetleaf; for pest or weed control at 250 g/ha: 250 g ai/ha
In short: as §1

[6] = system: barnyardgrass (Echinochloa crus-galli); assay: Test G Pre-Emergence Protocol; conditions: Echinochloa crus-galli, pre-emergence, 312 h, evaluated after 13 days; for pest or weed control at 15.625 g/ha: 15.625 g ai/ha, read-out: Barnyard grass damage rating (100=total damage to plant; 0=no damage to plant); for pest or weed control at 62.5 g/ha: 62.5 g ai/ha, 100=total damage to plant, 0=no damage to plant, read-out: plant damage rating, Barnyardgrass; for pest or weed control at 250 g/ha: 250 g ai/ha, read-out: Barnyardgrass damage rating (100=total damage to plant; 0=no damage to plant)
In short: as §1

[7] = system: giant foxtail (Setaria faberi); assay: Test G Post-Emergence Protocol; conditions: Setaria faberi, post-emergence, 312 h; for pest or weed control at 15.625 g/ha: 15.625 g ai/ha, evaluated after 13 days (100=total damage to plant; 0=no damage to plant), read-out: Foxtail, Giant damage rating; for pest or weed control at 62.5 g/ha: 62.5 g ai/ha, read-out: Foxtail, Giant damage rating (100=total damage to plant; 0=no damage to plant); for pest or weed control at 62.5 g/ha / pest or weed control at 250 g/ha: evaluated after 13 days; for pest or weed control at 250 g/ha: 250 g ai/ha, read-out: damage to plant, Foxtail, Giant (100=total damage to plant; 0=no damage to plant)
In short: (§2)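 Scores run 0 (no damage) to 100 (total damage) and were taken 13 days after spraying. Plants had been raised in pots for 8 days under glasshouse control (24/16 °C, 14 h photoperiod, 65% humidity) and then treated at 15.625, 62.5 or 250 g/ha.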

[8] = system: redroot pigweed (Amaranthus retroflexus); assay: Test G Post-Emergence Protocol; conditions: Amaranthus retroflexus, post-emergence, 312 h; for pest or weed control at 15.625 g/ha: 15.625 g ai/ha, evaluated after 13 days (100=total damage to plant; 0=no damage to plant), read-out: Pigweed, Redroot damage rating; for pest or weed control at 62.5 g/ha: 62.5 g ai/ha, read-out: Pigweed, Redroot damage rating (100=total damage to plant; 0=no damage to plant); for pest or weed control at 62.5 g/ha / pest or weed control at 250 g/ha: evaluated after 13 days; for pest or weed control at 250 g/ha: 250 g ai/ha, read-out: damage to plant, Pigweed, Redroot (100=total damage to plant; 0=no damage to plant)
In short: as §2

corn (Zea mays) [9] = assay: Test G Post-Emergence Protocol; conditions: Zea mays, post-emergence, 312 h; for plant injury at 15.625 g/ha: 15.625 g ai/ha, evaluated after 13 days (100=total damage to plant; 0=no damage to plant), read-out: Corn damage rating; for plant injury at 62.5 g/ha: 62.5 g ai/ha, read-out: Corn damage rating (100=total damage to plant; 0=no damage to plant); for plant injury at 62.5 g/ha / plant injury at 250 g/ha: evaluated after 13 days; for plant injury at 250 g/ha: 250 g ai/ha, read-out: damage to plant, Corn (100=total damage to plant; 0=no damage to plant)
In short: as §2

[10] = system: ivy-leaved morning glory (Ipomoea hederacea); assay: Test G Post-Emergence Protocol; conditions: Ipomoea, post-emergence, 312 h; for pest or weed control at 15.625 g/ha: 15.625 g ai/ha, evaluated after 13 days (100=total damage to plant; 0=no damage to plant), read-out: Morningglory, Ivy-leaved damage rating; for pest or weed control at 62.5 g/ha: 62.5 g ai/ha, read-out: Morningglory, Ivy-leaved damage rating (100=total damage to plant; 0=no damage to plant); for pest or weed control at 62.5 g/ha / pest or weed control at 250 g/ha: evaluated after 13 days; for pest or weed control at 250 g/ha: 250 g ai/ha, read-out: damage to plant, Morningglory, Ivy-leaved (100=total damage to plant; 0=no damage to plant)
In short: as §2

[11] = system: velvetleaf (Abutilon theophrasti); assay: Test G Post-Emergence Protocol; conditions: Abutilon theophrasti, post-emergence, 312 h; for pest or weed control at 15.625 g/ha: 15.625 g ai/ha, evaluated after 13 days (100=total damage to plant; 0=no damage to plant), read-out: Velvetleaf damage rating; for pest or weed control at 62.5 g/ha: 62.5 g ai/ha, read-out: Velvetleaf damage rating (100=total damage to plant; 0=no damage to plant); for pest or weed control at 62.5 g/ha / pest or weed control at 250 g/ha: evaluated after 13 days; for pest or weed control at 250 g/ha: 250 g ai/ha, read-out: damage to plant, Velvetleaf (100=total damage to plant; 0=no damage to plant)
In short: as §2

[12] = system: barnyardgrass (Echinochloa crus-galli); assay: Test G Post-Emergence Protocol; conditions: Echinochloa crus-galli, post-emergence, 312 h; for pest or weed control at 15.625 g/ha: 15.625 g ai/ha, evaluated after 13 days (100=total damage to plant; 0=no damage to plant), read-out: Barnyardgrass damage rating; for pest or weed control at 62.5 g/ha: 62.5 g ai/ha, read-out: Barnyardgrass damage rating (100=total damage to plant; 0=no damage to plant); for pest or weed control at 62.5 g/ha / pest or weed control at 250 g/ha: evaluated after 13 days; for pest or weed control at 250 g/ha: 250 g ai/ha, read-out: damage to plant, Barnyardgrass (100=total damage to plant; 0=no damage to plant)
In short: as §2

| Structure (SMILES) | pest or weed control at 15.625 g/ha [1] | pest or weed control at 62.5 g/ha [1] | pest or weed control at 250 g/ha [1] | pest or weed control at 15.625 g/ha [2] | pest or weed control at 62.5 g/ha [2] | pest or weed control at 250 g/ha [2] | plant injury at 15.625 g/ha (corn (Zea mays) [3]) | plant injury at 62.5 g/ha (corn (Zea mays) [3]) | plant injury at 250 g/ha (corn (Zea mays) [3]) | pest or weed control at 15.625 g/ha [4] | pest or weed control at 62.5 g/ha [4] | pest or weed control at 250 g/ha [4] | pest or weed control at 15.625 g/ha [5] | pest or weed control at 62.5 g/ha [5] | pest or weed control at 250 g/ha [5] | pest or weed control at 15.625 g/ha [6] | pest or weed control at 62.5 g/ha [6] | pest or weed control at 250 g/ha [6] | pest or weed control at 15.625 g/ha [7] | pest or weed control at 62.5 g/ha [7] | other results |
| --- | --- | --- | --- | --- | --- | --- | --- | --- | --- | --- | --- | --- | --- | --- | --- | --- | --- | --- | --- | --- | --- |
| C=CCc1c(Cl)cccc1NC(=O)[C@H]1C(=O)N(C)C[C@H]1c1ccc(C(F)(F)F)cc1 (racemic) [Compound 1439] | 0% | 0% | 50% | 0% | 0% | 0% | 0% | 0% | 0% | 0% | 0% | 0% | 0% | 0% | 0% | 0% | 0% | 40% | 0% | 20% | pest or weed control at 250 g/ha [7]: 60%; pest or weed control at 15.625 g/ha [8]: 0%; pest or weed control at 62.5 g/ha [8]: 0%; pest or weed control at 250 g/ha [8]: 40%; plant injury at 15.625 g/ha (corn (Zea mays) [9]): 10%; plant injury at 62.5 g/ha (corn (Zea mays) [9]): 10%; plant injury at 250 g/ha (corn (Zea mays) [9]): 10%; pest or weed control at 15.625 g/ha [10]: 0%; pest or weed control at 62.5 g/ha [10]: 0%; pest or weed control at 250 g/ha [10]: 0%; pest or weed control at 15.625 g/ha [11]: 0%; pest or weed control at 62.5 g/ha [11]: 0%; pest or weed control at 250 g/ha [11]: 0%; pest or weed control at 15.625 g/ha [12]: 0%; pest or weed control at 62.5 g/ha [12]: 0%; pest or weed control at 250 g/ha [12]: 10% |
| CN1C[C@H](c2ccc(C(F)(F)F)cc2)[C@@H](C(=O)Nc2ccc(F)c(C(F)(F)F)c2)C1=O (racemic) [Compound 1443] | 0% | 0% | 0% | 0% | 0% | 0% | 0% | 0% | 0% | 0% | 0% | 0% | 0% | 0% | 0% | 0% | 0% | 0% | 0% | 0% | pest or weed control at 250 g/ha [7]: 0%; pest or weed control at 15.625 g/ha [8]: 0%; pest or weed control at 62.5 g/ha [8]: 0%; pest or weed control at 250 g/ha [8]: 0%; plant injury at 15.625 g/ha (corn (Zea mays) [9]): 0%; plant injury at 62.5 g/ha (corn (Zea mays) [9]): 0%; plant injury at 250 g/ha (corn (Zea mays) [9]): 0%; pest or weed control at 15.625 g/ha [10]: 0%; pest or weed control at 62.5 g/ha [10]: 0%; pest or weed control at 250 g/ha [10]: 0%; pest or weed control at 15.625 g/ha [11]: 0%; pest or weed control at 62.5 g/ha [11]: 0%; pest or weed control at 250 g/ha [11]: 0%; pest or weed control at 15.625 g/ha [12]: 0%; pest or weed control at 62.5 g/ha [12]: 0%; pest or weed control at 250 g/ha [12]: 0% |
| Cc1c(C#N)cccc1NC(=O)[C@H]1C(=O)N(C)C[C@@H]1c1ccc(C(F)(F)F)cc1 (racemic) [Compound 1444] | 50% | 80% | 80% | 0% | 40% | 50% | 0% | 0% | 50% | 10% | 0% | 40% | 0% | 20% | 20% | 10% | 30% | 60% | 0% | 60% | pest or weed control at 250 g/ha [7]: 60%; pest or weed control at 15.625 g/ha [8]: 10%; pest or weed control at 62.5 g/ha [8]: 10%; pest or weed control at 250 g/ha [8]: 20%; plant injury at 15.625 g/ha (corn (Zea mays) [9]): 10%; plant injury at 62.5 g/ha (corn (Zea mays) [9]): 10%; plant injury at 250 g/ha (corn (Zea mays) [9]): 10%; pest or weed control at 15.625 g/ha [10]: 0%; pest or weed control at 62.5 g/ha [10]: 10%; pest or weed control at 250 g/ha [10]: 10%; pest or weed control at 15.625 g/ha [11]: 0%; pest or weed control at 62.5 g/ha [11]: 0%; pest or weed control at 250 g/ha [11]: 0%; pest or weed control at 15.625 g/ha [12]: 0%; pest or weed control at 62.5 g/ha [12]: 10%; pest or weed control at 250 g/ha [12]: 20% |
